Patent US4737504A, “5-fluoro-and 8-fluoro-trimetoquinol compounds and the processes for their preparation” (priority 1986, dated 1988)
Read-outs that look alike come from different tables or passages of the source.

Legend:
adrenergic receptors = settings: background; cited from earlier work
[1] = biological target: T1, U46619-induced contractions of rat thoracic aorta (Rattus norvegicus, UniProt P34978); assay: antagonism of U46619-induced contractions of rat thoracic aorta; assay type: cell-based, rat (male Sprague-Dawley); settings: no analog (None); n = 16; read-out: pD2 of U46619 (control) (converted)
T1 construct: A 2-3 cm segment of thoracic aorta was excised; tissue Harlan Industries, Inc., Cumberland, IN (animals); host or cells: rat thoracic aorta, spirally cut strips
T1 sequence (P34978 1-341): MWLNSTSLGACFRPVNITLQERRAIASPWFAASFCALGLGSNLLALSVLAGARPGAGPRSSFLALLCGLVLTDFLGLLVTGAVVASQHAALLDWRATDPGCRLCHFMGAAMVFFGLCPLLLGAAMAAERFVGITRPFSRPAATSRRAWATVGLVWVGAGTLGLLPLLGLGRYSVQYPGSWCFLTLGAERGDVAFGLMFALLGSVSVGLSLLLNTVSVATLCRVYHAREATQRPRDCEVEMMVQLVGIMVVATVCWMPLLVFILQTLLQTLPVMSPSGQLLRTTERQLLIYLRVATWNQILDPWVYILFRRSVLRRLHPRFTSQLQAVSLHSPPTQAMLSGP
Experimental: The vasoconstrictive activity of U46619 (a stable thromboxane A2 agonist) on thoracic aorta tissue was determined as follows: Male Sprague-Dawley rats (Harlan Industries, Inc., Cumberland, IN) weighing between 250 and 350 gm were stunned and killed by cervical dislocation. A 2-3 cm segment of thoracic aorta was excised, cleaned of any adhering fat and connecting tissue, spirally cut into 2 matched strips, Constantine, supra. (2.0×0.3 cm). Strips were mounted in 10 ml tissue baths filled with the physiological salt solution in which 3×10^-6 M indomethaecin was present. A tension of 1 gm was applied to the strips. Responses of the tissues to drugs were monitored via Grass FT-03 isometric force transducers connected to a Grass Model 7C polygraph (Grass Instruments Co., Quincy, MA).
Some experiments were done in the absence of indomethacin. Concentration-dependent responses to U46619 were constructed in each preparation as described by Van Rossum, supra.
Effective concentration-50 (EC50) values of the agonists were determined graphically from individual plots of percent response versus log concentration. The potency of each agonist was expressed as a pD2 value where pD2 is equal to the negative logarithm of the experimentally determined EC50 value.
Antagonists were quantitated by calculating their pKB or pA2 values according to the methods of Furchgott, Ann. N.Y. Acad. Sci., 139: 553-570 (1967) and Arunlakshana et al., Br. J. Pharmacol., 14: 48-58 (1959). The pKB value is equivalent to the -log of [I]/(CR-1), where pKB is the negative logarithm of the apparent dissociation constant of the antagonist (KB), [I] is the concentration of the antagonist, and CR is the concentration ratio of the agonist EC50 in the presence of antagonist to the agonist EC50 in the absence of antagonist. To determine significant differences between pD2, pKB or pA2 values, a 5% level of significance was used. Arunlakshana plots were analyzed by computer according to the method of Tallarida et al., Manual of Pharmacological Calculations With Computer Programs, 29-31, (1981).

[2] = biological target: T2, β1-adrenoceptors (guinea pig atria) (Cavia porcellus, UniProt H0W3H1); assay: chronotropic response of spontaneously beating guinea pig right atria (β1-adrenergic activity); assay type: cell-based, guinea pig (male albino Hartley); settings: read-out: IAR ± SEM (intrinsic activity ratio)
T2 construct: the atria and trachea were quickly removed by standard procedures; tissue Glenn Carr, Columbus, OH (animals); host or cells: guinea pig right atria, spontaneously beating
Experimental: (§1) The β2 /β1 -adrenergic activity was determined using the following procedure: Male albino Hartley guinea pigs were employed in all experiments. The isolation and procedures for testing of each compound (10^-9 to 3×10^-5 M) with isolated guinea pig atria and trachea were identical with those described by Sober et al., J. Med. Chem., 24: 970, 1981.
Male guinea pigs (Hartley strain, Glenn Carr, Columbus, OH) weighing between 400 and 700 grams were reserpinized (5 mg/kg, i.p.) 12-16 hours before experiments. Animals were sacrificed by a sharp blow to the head and the atria and trachea were quickly removed by standard procedures (The Staff, University of Edinburgh, "Pharmacological Experiments on Isolated Preparation", Livingston, London, pp. 104-111, 1970). Trachea were spirally cut into 2 to 4 matched strips (Constantine, J. Pharm. Pharmac., 17: 34-35, 1965). […]
(§2) Each drug concentration was added only after the effects of the previous concentration reached a maximum and remained constant. […] Responses for agonists were expressed as pD2 values (-log EC50) values and were calculated directly from graphical plots of % maximal response versus log molar drug concentration.

[3] = tested on: human platelets (arachidonic acid-induced serotonin secretion); assay: inhibition of arachidonic acid-induced serotonin secretion, human platelet-rich plasma; assay type: cell-based
Experimental: (§3) The antiaggregatory and antisecretory activity on human platelets was determined by evaluating the in vitro aggregation and [^14 C]serotonin secretion in human platelet preparations. Blood was taken by venipuncture from normal human volunteers who were reported to be free of medication for at least 10 days before blood drawing. Venous blood samples were mixed with acid-citrate dextrose solution (9:1) and centrifuged at 120×g for 15 minutes at room temperature to obtain platelet-rich plasma, PRP, (Huzoor-Akbar et al., Biochem. Pharmacol., 30: 2013-2020, 1981). The PRP was transferred to polypropylene tubes and stored under an atmosphere of 8% CO2. The remaining blood was centrifuged at 1000×g for 10 minutes to obtain platelet-poor plasma. […] Platelet counts varied between 280,000 to 320,000 per cmm or were adjusted to 300,000 per cmm for the aggregation and secretion experiments. All studies were conducted within 2 hours after PRP recovery.
(§4) For aggregation studies, 0.5 ml of PRP was incubated with drug or vehicle (1-5 μl) for 1 minute at 37° C. before the initiation of aggregation with inducers. […] In all experiments, the minimum concentration of inducer (adenosine diphosphate ADP; epinephrine, E; 15S-hydroxy-11α,9α-epoxymethanoprosta-5Z,13E-dienoic acid, U46619; collagen; and arachidonic acid, AA) which caused maximal irreversible aggregation within each PRP preparation was used. Aggregation was monitored for 4 to 6 minutes after the addition of an inducer and data were presented as a percentage inhibition of either slope or maximal light transmittance changes in the presence of varying drug concentrations.
(§5) Secretion data were calculated as the net increase of serotonin released into the supernatant by each inducer and expressed as a percentage of the total radioactivity in platelets Mayo et al., Biochem. Pharmacol., 30: 2237-2241, 1981. The effect of compounds on serotonin release was expressed as the percentage of inhibition of the maximum release by each inducer and plotted against the log molar concentrations of each agent.

[4] = tested on: human platelets (collagen-induced aggregation); assay: inhibition of collagen-induced platelet aggregation, human platelet-rich plasma; assay type: cell-based
Experimental: as §3, §4

[5] = tested on: human platelets (collagen-induced serotonin secretion); assay: inhibition of collagen-induced serotonin secretion, human platelet-rich plasma; assay type: cell-based
Experimental: as §3, §4, §5

human platelets [6] = settings: in vitro, background; cited from earlier work
[7] = tested on: human platelets (arachidonic acid-induced aggregation); assay: inhibition of arachidonic acid-induced platelet aggregation, human platelet-rich plasma; assay type: cell-based
Experimental: as §3, §4

[8] = tested on: human platelets (U46619-induced serotonin secretion); assay: inhibition of U46619-induced serotonin secretion in presence of aspirin, human platelet-rich plasma; assay type: cell-based
Experimental: as §3, §4, §5

[9] = tested on: human platelets (U46619-induced aggregation); assay: inhibition of U46619-induced platelet aggregation in presence of aspirin, human platelet-rich plasma; assay type: cell-based
Experimental: as §3, §4

human platelets [10] = assay: human platelet aggregation and serotonin release, inducers taken together; assay type: cell-based; settings: each inducer
Experimental: as §3, §4, §5

[11] = biological target: T3, β2-adrenoceptors (guinea pig trachea) (Cavia porcellus, UniProt Q8K4Z4); assay: relaxation of carbachol-contracted guinea pig tracheal strips (β2-adrenergic activity); assay type: cell-based, guinea pig (male albino Hartley)
T3 construct: the atria and trachea were quickly removed by standard procedures; tissue Glenn Carr, Columbus, OH (animals); host or cells: guinea pig trachea, spirally cut strips
Experimental: as §1
Male guinea pigs (Hartley strain, Glenn Carr, Columbus, OH) weighing between 400 and 700 grams were reserpinized (5 mg/kg, i.p.) 12-16 hours before experiments. Animals were sacrificed by a sharp blow to the head and the atria and trachea were quickly removed by standard procedures (The Staff, University of Edinburgh, "Pharmacological Experiments on Isolated Preparation", Livingston, London, pp. 104-111, 1970). Trachea were spirally cut into 2 to 4 matched strips (Constantine, J. Pharm. Pharmac., 17: 34-35, 1965). Spontaneously beating atria and tracheal strips were mounted in 10 ml tissue baths filled with Krebs-Heinsleit solution (millimolar concentrations: NaCl, 118; KCl, 4.7; CaCl2 -2H2 O, 2.5; MgCl2 -6H2 O, 5.0; NaH2 PO4 H2 O, 1.0; NaHCO3, […]; and dextrose, 11) warmed to 37° C. and bubbled with 95% O2 :5% CO2. Tensions of 1 and 3 gm were applied to the atria and trachea, respectively.
Following a minimum 1 hour equilibration period, a concentration of 3×10^-7 M carbachol was administered to the strips.
as §2

[12] = phenol acidities (pKa) determined spectrophotometrically; assay type: physicochemical; settings: phenol; tris(hydroxymethyl)aminomethane buffer; UV
Experimental: Phenol acidities (pKa) were determined spectrophotometrically, as described by Albert et al., "The determination of Ionization Constants" 3rd Ed., Chapman and Hall, London and New York, 1984, by measuring the absorption as a function of pH in tris(hydroxymethyl)aminomethane buffer. Since the catechols tended to oxidize in basic media the buffers were degassed and flushed with argon prior to use.

[13] = background; cited from earlier work
[14] = tested on: human platelets (ADP-induced aggregation); assay: inhibition of the secondary phase of ADP-induced platelet aggregation, human platelet-rich plasma; assay type: cell-based
Experimental: as §3, §4

[15] = tested on: human platelets (ADP-induced serotonin secretion); assay: inhibition of ADP-induced serotonin secretion, human platelet-rich plasma; assay type: cell-based
Experimental: as §3, §4, §5

[16] = tested on: human platelets (epinephrine-induced serotonin secretion); assay: inhibition of epinephrine-induced serotonin secretion, human platelet-rich plasma; assay type: cell-based
Experimental: as §3, §4, §5

[17] = tested on: human platelets (epinephrine-induced aggregation); assay: inhibition of the secondary phase of epinephrine-induced platelet aggregation, human platelet-rich plasma; assay type: cell-based
Experimental: as §3, §4

[18] = cited from earlier work
[19] = read-out: IC50 serotonin secretion
[20] = read-out: pIC50 serotonin secretion (converted)
[21] = read-out: IC50 platelet aggregation
[22] = read-out: pIC50 platelet aggregation (converted)
[23] = read-out: IC50 platelet aggregation (secondary phase)
[24] = read-out: pIC50 platelet aggregation (secondary phase) (converted)

T3 sequence (Q8K4Z4 whole entry): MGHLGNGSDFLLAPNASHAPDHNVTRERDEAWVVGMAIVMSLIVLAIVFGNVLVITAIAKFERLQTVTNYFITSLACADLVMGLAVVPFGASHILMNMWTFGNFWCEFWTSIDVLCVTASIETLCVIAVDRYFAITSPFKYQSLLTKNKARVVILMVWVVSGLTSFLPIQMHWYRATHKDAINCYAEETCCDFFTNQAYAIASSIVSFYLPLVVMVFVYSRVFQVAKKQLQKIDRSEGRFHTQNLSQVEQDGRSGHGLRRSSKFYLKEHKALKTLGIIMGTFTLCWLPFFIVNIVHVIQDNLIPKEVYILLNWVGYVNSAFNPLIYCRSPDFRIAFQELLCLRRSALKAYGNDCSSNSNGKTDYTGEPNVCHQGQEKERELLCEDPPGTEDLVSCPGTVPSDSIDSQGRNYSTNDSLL
T2 sequence (H0W3H1 1-470): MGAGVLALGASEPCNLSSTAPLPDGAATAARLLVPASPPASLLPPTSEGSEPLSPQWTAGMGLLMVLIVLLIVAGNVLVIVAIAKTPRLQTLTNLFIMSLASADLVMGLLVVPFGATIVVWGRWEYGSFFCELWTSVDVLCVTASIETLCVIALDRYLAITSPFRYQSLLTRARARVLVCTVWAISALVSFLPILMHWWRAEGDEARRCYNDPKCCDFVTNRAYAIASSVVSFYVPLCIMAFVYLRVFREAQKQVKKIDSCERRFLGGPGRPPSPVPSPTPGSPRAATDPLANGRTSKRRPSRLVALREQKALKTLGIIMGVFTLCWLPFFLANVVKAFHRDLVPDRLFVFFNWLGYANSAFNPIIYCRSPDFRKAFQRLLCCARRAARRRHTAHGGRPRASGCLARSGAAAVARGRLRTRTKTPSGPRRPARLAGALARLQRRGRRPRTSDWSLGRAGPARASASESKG

For `NCC(O)c1ccc(O)c(O)c1F` (stereo not shown), the “adrenergic receptor activity/selectivity” value (adrenergic receptors) is listed as “selective β-adrenergic agonist”.

In the case of `NCCc1ccc(O)c(O)c1F` [2-fluoro-dopamine], the “adrenergic receptor activity/selectivity” value (adrenergic receptors) is listed as “do not show selectivity for adrenergic receptors”.

In the case of `NCC(O)c1cc(O)c(O)cc1F` (stereo not shown) [6-fluoro analog of norepinephrine], the “adrenergic receptor activity/selectivity” value (adrenergic receptors) is given as “selective β-adrenergic agonist”.

In the case of `NCCc1cc(O)c(O)cc1F` [6-fluoro-dopamine], the “adrenergic receptor activity/selectivity” value (adrenergic receptors) is listed as “do not show selectivity for adrenergic receptors”.

Compound `CCCCC[C@H](O)/C=C/[C@@H]1[C@@H](C/C=C\CCCC(=O)O)[C@H]2CO[C@@H]1C2` [Compound U46619, 15S-hydroxy-11α,9α-epoxymethanoprosta-5Z,13E-dienoic acid, reference compound] has an EC50 [1] of 6.76 nM.

For `CNC[C@H](O)c1ccc(O)c(O)c1` [R-(-)-epinephrine], the “adrenergic receptor activity/selectivity” value (adrenergic receptors) is given as “more active than S-(+)-epinephrine on both α- and β-adrenergic receptors”.

`COc1cc(CC2NCCc3cc(O)c(O)cc32)cc(OC)c1OC` (stereo not shown) [TMQ, trimetoquinol] showed an Emax [2] of 100%, an IC50 [3, 19] of 1330 nM and an IC50 [3, 20] of 1260 nM. It also gave an IC50 [4, 21] of 930 nM, an IC50 [4, 22] of 933 nM and an IC50 [5, 19] of 620 nM. The IC50 [5, 20] was 589 nM, the “effect on arachidonic acid-mediated platelet aggregation” value (human platelets [6]) was “blocks endoperoxide/thromboxane arachidonic acid-mediated in vitro aggregation of human platelets” and the IC50 [7, 21] was 1040 nM. The IC50 [7, 22] was 1050 nM, the IC50 [8, 19] was 720 nM and the IC50 [8, 20] was 692 nM. The IC50 [9, 21] was 440 nM, the IC50 [9, 22] was 437 nM and the “inhibition of aggregation and serotonin release” value (human platelets [10]) was “inhibitors of aggregation and serotonin release by each inducer”. For the same compound, the EC50 [11] was 57.5 nM, the “agonist activity on tracheal relaxation” value [11] was “nearly equally active as an agonist on tracheal relaxation” and the Emax ([11]; guinea pig, read-out: IAR ± SEM (intrinsic activity ratio)) was 95 ± 1%. The pKa [12] was 8.77 ± 0.15, the “side effects” value [13] was “undesirable effect of also increasing the β1 -adrenergic activity which stimulates the heart” and the IC50 [14, 23] was 340 nM. It also gave an IC50 [14, 24] of 269 nM, an IC50 [15, 19] of 230 nM and an IC50 [15, 20] of 200 nM. The IC50 [16, 19] was 1150 nM, the IC50 [16, 20] was 1020 nM and the IC50 [17, 23] was 1730 nM. It also gave an IC50 [17, 24] of 1660 nM.

In the case of `CNC[C@H](O)c1ccc(O)c(O)c1` [epinephrine], the “adrenergic receptor activity/selectivity” value (adrenergic receptors) is given as “stimulates both α- and β-adrenergic receptors to about the same degree” and the “side effects” value [13] is given as “tachycardia, elevated blood pressure, headache, and tremors”.

In the case of `CC(C)NCC(O)c1ccc(O)c(O)c1` (stereo not shown) [isoproterenol], the “adrenergic receptor activity/selectivity” value (adrenergic receptors) is listed as “possesses little tissue selectivity and stimulates both β1 - and β2 -adrenergic receptors”, the duration of action ([18]; averaging) is listed as 1.5 to 2 h and the onset of action ([18]; bronchodilator, inhalation) is listed as 2 to 5 min. For the same compound, the “side effects” value [13] was “undesirable tachycardia, increase in cardiac output and an elevation in blood pressure”.
